Reference: article PMC6600542 (Molecules, 2019)
Values joined by “and” are separate entries in the source; they are usually repeats but may differ in a detail not shown here. Identical values can stand only once.

Legend:
normal human plasma [1] = experiment: APTT clotting assay, normal human plasma; assay type: biochemical; details: normal human plasma (text)
Experimental: (§1) For the PT assay, thromboplastin-D was reconstituted according to the manufacturer’s directions and warmed to 37 °C. […] After incubation for 4 min at 37 °C, clotting was initiated by adding 100 μL of prewarmed 25 mM CaCl2 and the time to clotting was noted. […] To determine the in vitro effect on the APTT of deficient human plasmas, the APTT assay was repeated, using human plasmas deficient of factor VII (FVII), factor IX (FIX), FXI, or factor XII (FXII). […] The positive control used in APTT and PT assays was rivaroxaban, a clinically used FXa inhibitor. Under the conditions reported, rivaroxaban doubled the APTT and PT at concentrations of 0.123 ± 0.003 µM and 0.193 ± 0.043 µM, respectively.

[2] = tested on: human plasma deficient of FXI; experiment: APTT clotting assay, FXI-deficient plasma; assay type: biochemical
Experimental: as §1

normal human plasma [3] = experiment: TT clotting assay, normal human plasma; assay type: biochemical; details: for concentration to double the TT: normal human plasma (text)
human α-thrombin = target: T1, human α-thrombin (Homo sapiens, UniProt P00734); experiment: Thrombin chromogenic substrate hydrolysis assay; assay type: biochemical
T1 construct: purchased Haematologic Technologies, Inc
Experimental: Direct inhibition of human FXa and α-thrombin of the common coagulation pathway and human plasmin of the fibrinolysis pathway were measured using the corresponding chromogenic substrate hydrolysis assays at 37 °C and pH 7.4, as reported earlier using the 96-microplate platform. […] After 10 min incubation, 5 µL Spectrozyme FXa (5 mM stock conc.) was rapidly added and the residual activity of FXa was measured from the initial rate of increase in absorbance at 405 nm. […] The concentration vs effect curve was constructed using logistic Equation (1) from which the potency (IC50) and efficacy (ΔY) of inhibition were also obtained.
For thrombin and plasmin, the assays were performed using substrates appropriate for each enzyme (Spectrozyme TH for thrombin and Spectrozyme PL for plasmin) under conditions closest to the physiological condition. The KM of the substrate for its enzyme was used to identify the concentration of the substrate to be used for inhibition studies. […] After 10 min incubation, 5 µL Spectrozyme TH (1.0 mM stock conc.) was rapidly added and the residual activity of thrombin was measured from the initial rate of increase in absorbance at 405 nm. […] After 10 min incubation, 5 µL Spectrozyme PL (1.0 mM stock conc.) was rapidly added and the residual activity of plasmin was measured from the initial rate of increase in absorbance at 405 nm. […]

[4] = target: T2, guinea pig transglutaminase (UniProt P08587); experiment: Guinea pig transglutaminase inhibition; assay type: biochemical; details: at concentrations as high as 500 µM
T2 sequence (P08587 1-690): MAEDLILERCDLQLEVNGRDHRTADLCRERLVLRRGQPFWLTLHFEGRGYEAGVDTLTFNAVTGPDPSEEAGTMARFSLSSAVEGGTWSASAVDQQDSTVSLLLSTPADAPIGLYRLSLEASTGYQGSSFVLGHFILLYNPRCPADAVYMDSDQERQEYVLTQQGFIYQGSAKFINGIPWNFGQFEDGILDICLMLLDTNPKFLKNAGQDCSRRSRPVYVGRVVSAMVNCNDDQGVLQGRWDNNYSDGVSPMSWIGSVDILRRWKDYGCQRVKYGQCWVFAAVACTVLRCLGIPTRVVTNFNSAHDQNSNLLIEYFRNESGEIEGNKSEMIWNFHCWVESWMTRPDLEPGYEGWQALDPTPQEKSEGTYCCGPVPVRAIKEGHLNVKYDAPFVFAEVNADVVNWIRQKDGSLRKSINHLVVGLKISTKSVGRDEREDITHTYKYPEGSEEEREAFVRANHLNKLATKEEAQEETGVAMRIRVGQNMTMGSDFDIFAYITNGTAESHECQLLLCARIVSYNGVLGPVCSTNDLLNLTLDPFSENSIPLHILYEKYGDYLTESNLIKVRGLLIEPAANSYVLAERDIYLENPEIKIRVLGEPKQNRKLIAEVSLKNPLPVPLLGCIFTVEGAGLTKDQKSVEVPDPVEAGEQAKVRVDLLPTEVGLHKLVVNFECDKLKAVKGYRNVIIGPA

[5] = tested on: platelet-aggregation induced by adenosine diphosphate, epinephrine, thrombin, and collagen; details: cited from earlier work

N=C(N)c1ccc(OCCCCCOc2ccc(C(=N)N)cc2)cc1 [pentamidine isethionate, 4,4′-(pentane-1,5-diylbis(oxy))-dibenzimidamide]
concentration to double the APTT (normal human plasma [1]): 27.88 ± 2.99 µM | concentration to double the APTT (normal human plasma [1]; listed as pentamidine): lower than 50 µM | APTTEC2×, concentration to double clotting time [2]: 29.48 ± 3.88 µm | TTEC2×, concentration to double clotting time (normal human plasma [3]; TT assay, normal human plasma): 158.17 ± 30.87 µm | concentration to double the TT (normal human plasma [3]): 158.17 µM and 158.17 ± 30.87 µM | concentration to double the TT (normal human plasma [3]; listed as pentamidine): > 150 µM | IC50 (human α-thrombin; Thrombin, pH 7.4, 37 °C): > 100 µM | inhibition at 100 µM (human α-thrombin; thrombin, at 100 µM (highest concentration tested)): < 40% | inhibition of guinea pig transglutaminase [4]: did not inhibit | concentration that completely inhibited platelet-aggregation [5]: greater than 8.4 µM
